# Measurements taken from patent publication US11786595B2, “Methods for radiotherapy to trigger light activation drugs” (priority 2015, dated 2023).
# Legend:
# Acinetobacter baumannii = conditions: loaded into MCM-41 host, visible light 100 milliWatts per square centimeter; cited from earlier work
# [1] = system: Zaire Ebola virus (ZEBOV); conditions: cited from earlier work
# [2] = system: Venezuelan equine encephalitis virus (VEEV); conditions: cited from earlier work
# B16 melanoma cells [3] = test: CellTiter-Glo luminescence (cell viability) versus TMP concentration, with or without Cherenkov light; assay type: cell-based; conditions: 6 MV x-rays at 2 Gy, 48-hour incubation, with Cherenkov light vs without
# B16 melanoma cells [4] = test: Flow cytometry of MHC class I expression after X-ray/Cherenkov exposure; assay type: cell-based; conditions: 72 hour incubation
compound,measurement,setting,value
[Mn(PaPy3)(NO)](ClO4) [{Mn—NO}],clearing of bacteria by released nitric oxide,Acinetobacter baumannii,effectively cleared the bacteria
"[N-]=[N+]=Nc1cccc2c(I)cccc12 [INA, 1,5-iodonaphthyl-azide]",virus infectivity after INA treatment,[1],completely noninfectious
same,virus inactivation,[2],efficiently inactivate
"Cc1cc2cc3c(C)cc(=O)oc3c(C)c2o1 [TMP, 4,5′,8-trimethyl psoralen]",cell viability / cell kill,B16 melanoma cells [3],cell viability is reduced
same,MHC 1 expression,B16 melanoma cells [4]; 15 MV X-ray exposure with Cherenkov light,13.7%
same,MHC 1 expression,B16 melanoma cells [4]; control with no Cherenkov (x-rays only),8.01%
same,MHC 1 expression,B16 melanoma cells [4]; control with no x-rays,5.46%
